Structures can show the parent of a compound that is named as a salt.
Tests used:
[1] = target: T1, human cloned dopamine D4.2-receptors (Homo sapiens, UniProt P21917, DEL265-296); assay: Inhibition of the binding of 3H-YM-09151-2 to human dopamine D4 receptors; settings: [3H]YM-09151-2 0.06 nM
T1 construct: expressed in transfected cells; host or cells: CHO cells
T1 sequence (P21917 with tags, fused parts or gaps DEL265-296): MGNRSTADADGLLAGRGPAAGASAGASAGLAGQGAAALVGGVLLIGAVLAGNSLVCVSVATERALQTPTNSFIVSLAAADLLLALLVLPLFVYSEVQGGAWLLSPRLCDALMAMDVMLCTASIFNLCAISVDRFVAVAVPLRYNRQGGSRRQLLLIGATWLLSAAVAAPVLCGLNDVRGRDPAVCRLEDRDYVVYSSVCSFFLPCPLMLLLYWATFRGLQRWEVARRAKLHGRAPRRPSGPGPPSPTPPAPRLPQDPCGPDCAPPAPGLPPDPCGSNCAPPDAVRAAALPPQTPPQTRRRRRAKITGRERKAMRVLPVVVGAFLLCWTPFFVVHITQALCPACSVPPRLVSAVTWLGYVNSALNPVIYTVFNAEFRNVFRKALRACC
Protocol: Inhibition of the Binding of ^3H-YM-09151-2 to Human Dopamine D4 Receptors
By this method, the inhibition by drugs of the binding of [^3H]YM-09151-2 (0.06 nM) to membranes of human cloned dopamine D4.2-receptors expressed in CHO-cells is determined in vitro. Method modified from NEN Life Science Products, Inc., technical data certificate PC2533-10/96.

[2] = target: T2, cloned human 5-HT1A-receptors (Homo sapiens, UniProt P08908); assay: Inhibition of 3H-5-CT binding to human 5-HT1A receptors; settings: transfected HeLa cells (HA7), 15 minutes at 37° C., pH 7.7
T2 construct: expressed in transfected cells; host or cells: HeLa cells (HA7)
T2 sequence (P08908 1-422): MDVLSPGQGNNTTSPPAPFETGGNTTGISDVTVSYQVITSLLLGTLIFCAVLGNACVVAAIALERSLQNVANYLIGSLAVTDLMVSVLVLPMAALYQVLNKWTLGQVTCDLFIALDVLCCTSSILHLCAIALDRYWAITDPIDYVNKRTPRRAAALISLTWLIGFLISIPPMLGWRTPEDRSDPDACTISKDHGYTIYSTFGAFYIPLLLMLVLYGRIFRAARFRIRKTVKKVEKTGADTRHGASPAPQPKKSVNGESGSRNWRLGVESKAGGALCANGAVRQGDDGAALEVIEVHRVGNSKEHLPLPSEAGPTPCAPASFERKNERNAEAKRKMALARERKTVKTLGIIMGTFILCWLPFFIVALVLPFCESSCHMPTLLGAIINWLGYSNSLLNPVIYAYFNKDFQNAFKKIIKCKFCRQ
Protocol: The affinity of the compounds of the invention to 5-HT1A receptors was determined by measuring the inhibition of binding of a radioactive ligand at 5-HT1A-receptors as described in the following test:
Inhibition of ^3H-5-CT Binding to Human 5-HT1A Receptors.
By this method, the inhibition by drugs of the binding of the 5-HT1A-agonist ^3H-5-carboxamido tryptamine (^3H-5-CT) to cloned human 5-HT1A-receptors stably expressed in transfected HeLa cells (HA7) (Fargin, A. et al. J. Biol. Chem. 1989, 264, 14848) is determined in vitro. The assay was performed as a modification of the method described by Harrington, M. A. et al. J. Pharmacol. Exp. Ther. 1994, 268, 1098. Human 5-HT1A-receptors (40 μg of cell homogenate) were incubated for 15 minutes at 37° C. in 50 mM Tris buffer at pH 7.7 in the presence of ^3H-5-CT. Non-specific binding was determined by including 10 μM of metergoline. The reaction was terminated by rapid filtration through Unifilter GF/B filters on a Tomtec Cell Harvester. Filters were counted in a Packard Top Counter.

[3] = at 100 nM, CHO-cell membranes, human D4.2

inhibition at 0.1 µM [1, 3] [%]	inhibition at 0.05 µM ([2]; at 50 nM) [%]	SMILES	also measured
–	–	Brc1ccccc1SCCCN1CCN(c2cccc3[nH]ccc23)CC1 (as salt: oxalate) [Compound 2b, 4-(4-[3-(2-Bromo-phenylsulfanyl)-propyl]-piperazin-1-yl}-1H-indole]	melting point: 163 to 166 °C
–	–	Brc1ccccc1OCCCN1CCN(c2cccc3[nH]ccc23)CC1 (as salt: oxalate) [Compound 2c, 4-{4-[3-(2-Bromo-phenoxy)-propyl]-piperazin-1-yl}-1H-indole]	melting point: 206 to 208 °C
–	–	Fc1ccc(OCCCCN2CCN(c3cccc4[nH]ccc34)CC2)c(Br)c1 (as salt: oxalate) [Compound 2d, 4-{4-[4-(2-Bromo-4-fluoro-phenoxy)-butyl]-piperazin-1-yl}-1H-indole]	melting point: 218 to 220 °C
–	–	Cc1cccc(Cl)c1SCCCCN1CCN(c2cccc3[nH]ccc23)CC1 (as salt: oxalate) [Compound 2e, 4-{4-[4-(2-Chloro-6-methyl-phenylsulfanyl)-butyl]-piperazin-1-yl}-1H-indole]	melting point: 199 to 210 °C
–	–	Clc1cccc(Cl)c1SCCN1CCN(c2cccc3[nH]ccc23)CC1 (as salt: oxalate) [Compound 3b, 4-(4-[2-(2,6-Dichloro-phenylsulfanyl)-ethyl]-piperazin-1-yl)-1H-indole]	melting point: 130 to 133 °C (dec.)
–	–	Clc1ccc(SCCN2CCN(c3cccc4[nH]ccc34)CC2)cc1Cl (as salt: oxalate) [Compound 3c, 4-{4-[2-(3,4-Dichloro-phenylsulfanyl)-ethyl]-piperazin-1-yl}-1H-indole]	melting point: 140 to 141 °C
–	–	Clc1ccccc1OCCCN1CCN(c2cccc3[nH]ccc23)CC1 [Compound 1, 4-{4-[3-(2-Chloro-phenoxy)-propyl]-piperazin-1-yl}-1H-indole]	IC50 ([1]; membranes of CHO-cells expressing human D4.2): 92 nM; IC50 [2]: 12 nM; melting point: 189 to 199 °C
100	77	c1ccc(SCCCCN2CCN(c3cccc4[nH]ccc34)CC2)cc1 [Compound 5aj, 4-[4-(4-Phenylsulfanyl-butyl)-piperazin-1-yl]-1H-indole]	–
93	91	Cc1ccc(Cl)c(OCCCCN2CCN(c3cccc4[nH]ccc34)CC2)c1 [Compound 5ak, 4-{4-[4-(2-Chloro-5-methyl-phenoxy)-butyl]-piperazin-1-yl}-1H-indole]	–
96	92	Clc1ccc(Cl)c(SCCN2CCN(c3cccc4[nH]ccc34)CC2)c1 [Compound 5al, 4-{4-[2-(2,5-Dichloro-phenylsulfanyl)-ethyl]-piperazin-1-yl}-1H-indole]	–
83	93	Clc1cccc(SCCN2CCN(c3cccc4[nH]ccc34)CC2)c1 [Compound 5am, 4-{4-[2-(3-Chloro-phenylsulfanyl)-ethyl]-piperazin-1-yl}-1H-indole]	–
83	91	Clc1ccccc1SCCN1CCN(c2cccc3[nH]ccc23)CC1 [Compound 5an, 4-{4-[2-(2-Chloro-phenylsulfanyl)-ethyl]-piperazin-1-yl}-1H-indole]	–
102	100	Clc1cccc(SCCCN2CCN(c3cccc4[nH]ccc34)CC2)c1 [Compound 5ao, 4-{4-[3-(3-Chloro-phenylsulfanyl)-propyl]-piperazin-1-yl}-1H-indole]	–
–	–	N#Cc1ccc(OCCCCN2CCN(c3cccc4[nH]ccc34)CC2)c(Cl)c1 [Compound 5ap]	Inhibition of 3H-YM-09151 binding % inhibition at 100 nM [1, 3]: 106%; Inhibition of 3H-5-CT Binding % inhibition at 50 nM ([2]; at 50 nM): 100%
98	100	Clc1cccc(SCCCCN2CCN(c3cccc4[nH]ccc34)CC2)c1 [Compound 5aq, 4-{4-[4-(3-Chloro-phenylsulfanyl)-butyl]-piperazin-1-yl}-1H-indole]	–
98	104	Clc1ccccc1SCCCCN1CCN(c2cccc3[nH]ccc23)CC1 [Compound 5ar, 4-{4-[4-(2-Chloro-phenylsulfanyl)-butyl]-piperazin-1-yl}-1H-indole]	–
99	103	Cc1ccc(SCCCN2CCN(c3cccc4[nH]ccc34)CC2)cc1C [Compound 5as, 4-{4-[3-(3,4-Dimethyl-phenylsulfanyl)-propyl]-piperazin-1-yl}-1H-indole]	–
97	99	Clc1ccc(Cl)c(OCCCCN2CCN(c3cccc4[nH]ccc34)CC2)c1 [Compound 5au, 4-{4-[4-(2,5-Dichloro-phenoxy)-butyl]-piperazin-1-yl}-1H-indole]	–
107	69	COc1ccc(SCCCCN2CCN(c3cccc4[nH]ccc34)CC2)cc1OC [Compound 5av, 4-{4-[4-(3,4-Dimethoxy-phenylsulfanyl)-butyl]-piperazin-1-yl}-1H-indole]	–
99	98	FC(F)(F)c1ccc(SCCCN2CCN(c3cccc4[nH]ccc34)CC2)cc1 [Compound 5aw, 4-{4-[3-(4-Trifluoromethyl-phenylsulfanyl)-propyl]-piperazin-1-yl}-1H-indole]	–
98	81	FC(F)(F)Oc1ccc(SCCCN2CCN(c3cccc4[nH]ccc34)CC2)cc1 [Compound 5ax, 4-{4-[3-(4-Trifluoromethoxy-phenylsulfanyl)-propyl]-piperazin-1-yl}-1H-indole]	–
105	96	Brc1cccc(SCCCN2CCN(c3cccc4[nH]ccc34)CC2)c1 [Compound 5ay, 4-{4-[3-(3-Bromo-phenylsulfanyl)-propyl]-piperazin-1-yl}-1H-indole]	–
94	98	CC(C)c1ccccc1SCCCN1CCN(c2cccc3[nH]ccc23)CC1 [Compound 5az, 4-{4-[3-(2-Isopropyl-phenylsulfanyl)-propyl]-piperazin-1-yl}-1H-indole]	–
80	83	COc1ccccc1OCCCCN1CCN(c2cccc3[nH]ccc23)CC1 [Compound 5ba, 4-{4-[4-(2-Methoxy-phenoxy)-butyl]-piperazin-1-yl}-1H-indole]	–
94	94	CC(C)c1ccccc1SCCCCN1CCN(c2cccc3[nH]ccc23)CC1 [Compound 5bb, 4-{4-[4-(2-Isopropyl-phenylsulfanyl)-butyl]-piperazin-1-yl}-1H-indole]	–

SMILES	inhibition at 0.1 µM [1, 3] [%]	inhibition at 0.05 µM ([2]; at 50 nM) [%]	also measured
N#Cc1cccc(OCCCCN2CCN(c3cccc4[nH]ccc34)CC2)c1 [Compound 5at, 3-{4-[4-(1H-Indol-4-yl)-piperazin-1-yl]-butoxy}-benzonitrile]	95	92	–

— patent US20030050307A1, “Novel indole derivatives” (H. Lundbeck A/S, priority 1999, published 2003)
